Five compounds from patent publication US9592407B2, “Pharmaceutical composition and uses thereof” (CHANG GUNG MEMORIAL HOSPITAL, LINKOU, priority 2012, dated 2017) can be followed below.

A word on the IC50: it is the concentration that gives 50% inhibition.

Read-outs that look alike come from different tables or passages of the source.

One assay deals with HeLa (Cervical). Nature of the assay: Combination drug treatment, Combination Index and IC50 (Example 6). The format is cell-based. The text has this:
(§1) Chou: Theoretical Basis, Experimental Design, and Computerized Simulation of Synergism and Antagonism in Drug Combination Studies, Pharmacological Reviews.

The subject of another assay is Mahlavu (HCC). The description is as above. The format is cell-based, Human.
Excerpt: as §1

For another assay, the system named is NPM. The assay is described as follows: Induction of NPM expression by cellular stresses (Example 2). The class given is cell-based, Human. The conditions noted are these: HCC cell lines following exposure; cisplatin 5.5, 69, 6.4 μg/ml, doxorubicin 1.4, 8.8, 5 μg/ml. From the text:
(§2) A subset of NPM was translocated to cytoplasm 6 hr after UV irradiation (indicated by an arrow in the right panel).
(§3) The expression of β-actin was used as the loading control. Simultaneous induction of BAX (pro-apoptosis) and NPM (anti-apoptosis) of cells upon cellular stress represents counteracting mechanisms regulating apoptosis versus survival response.

Assay [1] relates to BAX. The assay is described as follows: Induction of BAX expression by cellular stresses (Example 2). The class given is cell-based, Human. The conditions noted are these: all three HCC cell lines following treatment.
Excerpt: as §2, §3

Assay [2] concerns BAX. The assay is described as follows: BAX mitochondrial translocation and oligomerization in liver cancer cells (Example 4). The conditions noted are these: Hep3B and Mahlavu cells. The format is cell-based, Human. From the text: FIG. 6A illustrates the expression of NPM and BAX in the cytosol and the mitochondria of Mahlavu liver cancer cells following UV irradiation with or without transfected siRNA targeting NPM (NPM) or siRNA with scrambled sequences (NS). FIG. 6B illustrates the effect of siNPM and siNS on BAX dimmers (indicated with an asterisk) and BAX oligomers (twin-asterisk) in the mitochondria or the nuclei.
FIG. 6A illustrates cytoplasmic NPM increased after UV irradiation, whereas BAX increased in the cytosol and mitochondria after UV irradiation. Suppressing NPM expression by siRNA reduced the cytosolic BAX, while mitochondrial BAX level increased. […] Prohibitin (PHB) and glyceraldehyde 3-phosphate dehydrogenase (GAPDH) were used as the markers for mitochondrial and cytosolic components, respectively. Similar result for mitochondrial BAX enhancement was observed by inhibiting NPM with chemotherapeutic agents, such as staurosporin in Hep3B and Mahlavu cells.
A non-reducing condition for preparing cellular proteins was employed to validate the above findings.

The mark [3] stands for this setting: Homo sapiens, concentration of the named drug in Lapatinib + NSC348884 combination therapy, 72 hours, read-out: IC50 Combination Therapy.
The mark [4] stands for this setting: Homo sapiens, monotherapy, 72 hours after exposure, read-out: IC50 Monotherapy.
Where [5] appears, read: concentration of the named drug in Lapatinib + NSC348884 combination therapy, 72 hours, read-out: IC50 Combination Therapy.
Setting [6] is: monotherapy, 72 hours after exposure, read-out: IC50 Monotherapy.

Consider `CS(=O)(=O)CCNCc1ccc(-c2ccc3ncnc(Nc4ccc(OCc5cccc(F)c5)c(Cl)c4)c3c2)o1` [Lapatinib], for which the half-maximal inhibitory concentration (IC50) with HeLa (Cervical) (setting [3]) is 18.4 µM; with HeLa (Cervical) (setting [4]), 20.8 µM; in the assay with Mahlavu (HCC) (setting [3]) it was 14.4 µM; in the assay on Mahlavu (HCC) (setting [4]), 12.8 µM.
For `Cc1ccc2nc(CN(CCN(Cc3nc4ccc(C)cc4[nH]3)Cc3nc4ccc(C)cc4[nH]3)Cc3nc4ccc(C)cc4[nH]3)[nH]c2c1` [NSC348884], the concentration for half-maximal inhibition (IC50) turned out to be 4.92 µM in the assay with HeLa (Cervical) (setting [5]), 6.24 µM with HeLa (Cervical) (setting [6]), 3.84 µM in the assay on Mahlavu (HCC) (setting [5]) and 6.15 µM in the assay on Mahlavu (HCC) (setting [6]).
Turning to `N.N.[Cl][Pt][Cl]` [cisplatin], the NPM expression result with NPM is listed as “upregulated”. Besides, in the assay with BAX [1], the BAX expression entry is given as “increased”.
The like results for `COc1cccc2c1C(=O)c1c(O)c3c(c(O)c1C2=O)C[C@@](O)(C(=O)CO)C[C@@H]3O[C@H]1C[C@H](N)[C@H](O)[C@H](C)O1` [doxorubicin] were, in that order, “upregulated” and “increased”.
On to `CN[C@@H]1C[C@H]2O[C@@](C)([C@@H]1OC)n1c3ccccc3c3c4c(c5c6ccccc6n2c5c31)C(=O)NC4` [staurosporin], for which the “mitochondrial BAX” value in the assay on BAX [2] is recorded as “enhancement”.
